Data from PMC8253220, “Molecular design, synthesis and in vitro biological evaluation of thienopyrimidine–hydroxamic acids as chimeric kinase HDAC inhibitors: a challenging approach to combat cancer” (Journal of Enzyme Inhibition and Medicinal Chemistry, 2021).
Several values for one entry are separate records, joined by “and”; a condition that tells them apart may be missing. Identical values can stand only once.

Legend:
Test in all cases: NCI one-dose screen
Type in all cases: cell-based, human
SNB-75 = conditions: CNS SNB-75, 10 µM single dose
How it was run: (§1)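 Each cell line received compound at 10 μM as part of the NCI one-dose protocol. Values reflect growth inhibition percent calculated from growth relative to untreated controls.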

HCT-15 = conditions: Colon HCT-15, 10 µM single dose
How it was run: (§2)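 One concentration (10 μM) applied to each line of the full NCI-60 panel; percent growth compared against untreated cells.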

SF-268 = conditions: CNS SF-268, 10 µM single dose
How it was run: (§3)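 NCI-60 one-dose format: 10 μM compound; readout % growth inhibition relative to untreated cells.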

SK-MEL-28 = conditions: Melanoma SK-MEL-28, 10 µM single dose
How it was run: as §2

CCRF-CEM = conditions: Leukemia CCRF-CEM, 10 µM single dose
How it was run: as §2

SR = conditions: Leukemia SR, 10 µM single dose
How it was run: as §2

KM12 = conditions: Colon KM12, 10 µM single dose
How it was run: as §3

OVCAR-8 = conditions: Ovarian OVCAR-8, 10 µM single dose
How it was run: as §2

SF-539 = conditions: CNS SF-539, 10 µM single dose
How it was run: as §3

BT-549 = conditions: Breast BT-549, 10 µM single dose
How it was run: as §2

DU-145 = conditions: Prostate DU-145, 10 µM single dose
How it was run: as §2

M14 = conditions: Melanoma M14, 10 µM single dose
How it was run: as §2

HL-60(TB) = conditions: Leukemia HL-60(TB), 10 µM single dose
How it was run: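 At 10 μM, a single concentration, compounds were evaluated for antiproliferative effect in the NCI 60-line screen, with growth expressed relative to untreated control cells.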

NCI-H322M = conditions: NSCLC NCI-H322M, 10 µM single dose
How it was run: as §2

NCI-H522 = conditions: NSCLC NCI-H522, 10 µM single dose
How it was run: as §1

RPMI-8226 = conditions: Leukemia RPMI-8226, 10 µM single dose
How it was run: as §2

UACC-62 = conditions: Melanoma UACC-62, 10 µM single dose
How it was run: as §2

786-0 = conditions: Renal 786-0, 10 µM single dose
How it was run: as §2

NCI/ADR-RES = conditions: Ovarian NCI/ADR-RES, 10 µM single dose
How it was run: as §2

NCI-H23 = conditions: NSCLC NCI-H23, 10 µM single dose
How it was run: as §3

SF-295 = conditions: CNS SF-295, 10 µM single dose
How it was run: as §2

OVCAR-3 = conditions: Ovarian OVCAR-3, 10 µM single dose
How it was run: as §2

HT29 = conditions: Colon HT29, 10 µM single dose
How it was run: as §2

OVCAR-4 = conditions: Ovarian OVCAR-4, 10 µM single dose
How it was run: as §2

HS 578T = conditions: Breast HS 578T, 10 µM single dose
How it was run: as §2

TK-10 = conditions: Renal TK-10, 10 µM single dose
How it was run: as §2

CAKI-1 = conditions: Renal CAKI-1, 10 µM single dose
How it was run: as §2

A549/ATCC = conditions: NSCLC A549/ATCC, 10 µM single dose
How it was run: as §2

MOLT-4 = conditions: Leukemia MOLT-4, 10 µM single dose
How it was run: as §3

HOP-92 = conditions: NSCLC HOP-92, 10 µM single dose
How it was run: as §2

MDA-MB-435 = conditions: Melanoma MDA-MB-435, 10 µM single dose
How it was run: as §2

SK-MEL-2 = conditions: Melanoma SK-MEL-2, 10 µM single dose
How it was run: (§4)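 Following the standard NCI-60 protocol, compounds were applied once at 10 μM to all 60 cancer lines. Read-out is percent growth versus untreated controls, expressed as inhibition %.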

U251 = conditions: CNS U251, 10 µM single dose
How it was run: as §1

SNB-19 = conditions: CNS SNB-19, 10 µM single dose
How it was run: as §4

HCT-116 = conditions: Colon HCT-116, 10 µM single dose
How it was run: as §2

UO-31 = conditions: Renal UO-31, 10 µM single dose
How it was run: as §1

| Compound | Growth Percent (SNB-75) | Growth Percent (HCT-15) | Growth Percent (SF-268) | Growth Percent (SK-MEL-28) | Growth Percent (CCRF-CEM) | Growth Percent (SR) | Growth Percent (KM12) | Growth Percent (OVCAR-8) | Growth Percent (SF-539) | Growth Percent (BT-549) | Growth Percent (DU-145) | Growth Percent (M14) | Growth Percent (HL-60(TB)) | Growth Percent (NCI-H322M) | Growth Percent (NCI-H522) | Growth Percent (RPMI-8226) | Growth Percent (UACC-62) | Growth Percent (786-0) | Growth Percent (NCI/ADR-RES) | Growth Percent (NCI-H23) | also measured |
| --- | --- | --- | --- | --- | --- | --- | --- | --- | --- | --- | --- | --- | --- | --- | --- | --- | --- | --- | --- | --- | --- |
| Cc1c(C(=O)NO)sc2ncnc(Nc3cccc4[nH]cnc34)c12 [Compound 15a, 4-(1H-benzo[d]imidazol-4-ylamino)-N-hydroxy-5-methylthieno[2,3-d]pyrimidine-6-carboxamide] | 81.0% and 81.08% | 102.15% | 93.9% | 107.8% and 107.83% | 110.7% and 110.72% | 106% and 106.56% | 101.12% | 103.6% and 103.64% | 102.5% and 102.52% | 113.5% and 113.56% | 109.5% and 109.53% | 106.5% and 106.58% | 101.2% and 101.27% | 99.4% and 99.43% | 94.4% and 94.42% | 112.17% | 94.2% and 94.26% | 102.1% and 102.13% | 102.6% and 102.67% | 92.2% and 92.27% | Growth Percent (SF-295): 103.7%; Growth Percent (OVCAR-3): 106.1% and 106.13%; Growth Percent (HT29): 103.9% and 103.93%; Growth Percent (OVCAR-4): 111.9% and 111.94%; Growth Percent (HS 578T): 106.4% and 106.47%; Growth Percent (TK-10): 113.8% and 113.84%; Growth Percent (CAKI-1): 92.9% and 92.95%; Growth Percent (A549/ATCC): 99.5% and 99.51%; Growth Percent (MOLT-4): 104% and 104.07%; Growth Percent (HOP-92): 118.2% and 118.26%; Growth Percent (MDA-MB-435): 101.5% and 101.54%; Growth Percent (SK-MEL-2): 115.8% and 115.88%; Growth Percent (U251): 96.7% and 96.72%; Growth Percent (SNB-19): 98.9% and 98.99%; Growth Percent (HCT-116): 103.9% and 103.95%; Growth Percent (UO-31): 80.6% and 80.64% |
| Cc1c(C(=O)NCCC(=O)NO)sc2ncnc(Nc3ccc(F)c(Cl)c3)c12 [Compound 19d, 4–(3-chloro-4-fluorophenylamino)-N-(3-(hydroxyamino)-3-oxopropyl)-5-methylthieno[2,3-d]pyrimidine-6-carboxamide] | 97.5% | 101.5% and 101.58% | 96.4% and 96.48% | 111.5% and 111.54% | 105.2% and 105.23% | 110.82% | 103.8% and 103.84% | 101.3% and 101.35% | 98.0% and 98.02% | 113.9% and 113.96% | 111.2% and 111.26% | 104.7% and 104.71% | 102.8% | 108.1% and 108.11% | 95.5% and 95.56% | 110.0% and 110.01% | 102.3% and 102.36% | 105.3% and 105.34% | 101.4% and 101.46% | 100.6% | Growth Percent (SF-295): 96.0% and 96.07%; Growth Percent (OVCAR-3): 106.5%; Growth Percent (HT29): 104.1%; Growth Percent (OVCAR-4): 108.8% and 108.82%; Growth Percent (HS 578T): 103.1% and 103.12%; Growth Percent (TK-10): 107.2%; Growth Percent (CAKI-1): 96.6% and 96.62%; Growth Percent (A549/ATCC): 104.3% and 104.35%; Growth Percent (MOLT-4): 115.3% and 115.32%; Growth Percent (HOP-92): 117.7% and 117.77%; Growth Percent (MDA-MB-435): 101.8% and 101.82%; Growth Percent (SK-MEL-2): 100.6% and 100.61%; Growth Percent (U251): 102.2% and 102.27%; Growth Percent (SNB-19): 98.9% and 98.91%; Growth Percent (HCT-116): 107.3%; Growth Percent (UO-31): 84.8% and 84.81% |
| Cc1c(C(=O)NO)sc2ncnc(Nc3ccccc3)c12 [Compound 15b, N-hydroxy-5-methyl-4-(phenylamino)thieno[2,3-d]pyrimidine-6-carboxamide] | 74.2% and 74.29% | 91.3% and 91.34% | 91.8% and 91.83% | 100.9% and 100.91% | 98.7% and 98.78% | 78.2% | 102.0% and 102.03% | 104.4% and 104.46% | 92.8% and 92.86% | 112.4% and 112.44% | 100.1% and 100.13% | 100.4% and 100.48% | 103.0% and 103.03% | 101.8% and 101.81% | 86.6% and 86.62% | 106.0% and 106.04% | 92.5% and 92.58% | 98.6% and 98.65% | 96.1% and 96.17% | 90.5% and 90.51% | Growth Percent (SF-295): 91.9% and 91.96%; Growth Percent (OVCAR-3): 96.9% and 96.92%; Growth Percent (HT29): 100.5% and 100.52%; Growth Percent (OVCAR-4): 94.7% and 94.72%; Growth Percent (HS 578T): 104.7% and 104.75%; Growth Percent (TK-10): 123.2% and 123.28%; Growth Percent (CAKI-1): 77.6% and 77.61%; Growth Percent (A549/ATCC): 98.3% and 98.37%; Growth Percent (MOLT-4): 103.5%; Growth Percent (HOP-92): 99.8% and 99.83%; Growth Percent (MDA-MB-435): 98.5% and 98.58%; Growth Percent (SK-MEL-2): 109.3% and 109.33%; Growth Percent (U251): 90.0% and 90.06%; Growth Percent (SNB-19): 93.0% and 93.06%; Growth Percent (HCT-116): 102.9%; Growth Percent (UO-31): 72.7% and 72.78% |
